Laboratory results from publication PMC13462928 (Nature Communications, 2026).
pEC50, pIC50: −log10 of the molar value. “Also recorded” adds a separate entry of the source.

Key:
NUDT5 [1] = molecular target: T1, NUDT5 (Homo sapiens, UniProt Q96SW2+Q9UKK9); assay: Western blot NUDT5 degradation in HAP1 cells; assay type: cell-based; design: endogenous in cells; host or cells: HAP1
Procedure: (§1) Pellets were lysed on ice using RIPA buffer (25 mM Tris (pH 7.5), 150 mM NaCl, 1% Igepal, 1% SDS, 0.1% SDC, 1x protease inhibitor (Roche, cOmplete mini, 11836170001), 1x phosphatase (Thermo Scientific, Halt, 78429), 0.1% benzonase (Merck, E1014-5KU)), incubated for 15 min and then centrifuged for 20 min at 4 °C at maximum speed in a table-top centrifuge. […] Membranes were blocked with 6% milk in PBS-T for 1 h at RT, washed, and then incubated with primary antibody diluted in PBS-T supplemented with 0.1% NaN3 overnight at 4 °C. Membranes were incubated with fluorophore-conjugated secondary antibodies, Alexa Fluor 680 anti-rabbit IgG (Life Technologies, A21109), Alexa Fluor 750 anti-mouse IgG (Life Technologies, A21037) diluted 1:5000 in 2% milk PBS-T, washed and imaged with an Odyssey imager (Licor).

NUDT5 [2] = molecular target: T2, NUDT5 (Homo sapiens, UniProt Q9UKK9); assay: Western blot NUDT5 degradation in HAP1 cells; assay type: cell-based; design: endogenous in cells; host or cells: HAP1; conditions: HAP1 cells, Western blot; read-out: DC50 (half-maximal degradation concentration) of NUDT5
Procedure: as §1

HAP1 cells [3] = assay: Titration of NUDT5 degraders and controls against fixed 6-TG (2 µg/mL) in HAP1 cells, cell viability; assay type: cell-based, human; conditions: for concentration of maximal rescue of cell viability / rescue of 6-TG-induced toxicity: HAP1, 2 µg/mL 6-TG, 72 h
Procedure: (§2) Cells were counted and adjusted to a density of 25,000 cells/mL in culture medium. […] Plates were sealed with breathable film and incubated at 37 °C with 5% CO₂ for 72 hours. Cell viability was assessed using the CellTiter-Glo Luminescent Cell Viability Assay, following the manufacturer’s protocol (Promega). Luminescence was measured using a PHERAstar FS or FSX plate reader, and data were analyzed using GraphPad Prism software (versions 9 or 10). Results were normalized to the vehicle control (DMSO).

HAP1 cells [4] = assay: Untargeted global proteomics of HAP1 cells; assay type: cell-based, human; conditions: 100 nM, 6 h and 24 h
Procedure: Proteomics samples were digested with trypsin using STrap columns following the manufacturer’s protocol (C02-micro, ProtiFi). […] Then, the cell pellets were collected and lysed in 5% SDS containing 1 μL/mL benzonase (E1014, Millipore) and subsequently short sonication to shear genomic DNA (1×2 s pulse, 20% amplitude, microtip, Sonics Vibra Cell). 50 μg protein from the total cell lysate or 80% of the elution fraction of the chemical pulldown were first reduced by 20 mM dithiothreitol (M02712, Fluorochem), and alkylated by 40 mM iodoacetamide (I1149, Sigma). Phosphoric acid and S-Trap protein binding buffer were added to the sample lysates. Then, the SDS lysate/S-Trap buffer were loaded into a S-Trap column (C02-micro-80, ProtiFi). 1 μg of trypsin (V5111, Promega) was used to digest each sample at 37 °C for 20 h. The samples were then eluted and dried by vacuum centrifugation. […]
Raw data were searched against the human database (UP000005640, downloaded 08/21) using DIA-NN (v.1.8.1)[48] by enabling FASTA digest for library-free search and Deep learning-based spectra, RTs, and IMs prediction. […] The protein groups matrix was further analysed using Perseus (2.0.9.0)[49] or R studio (4.3.2). […] Proteins were removed if detected less than 70% across all runs. […]

NUDT5 [5] = molecular target: T2, NUDT5; assay: NanoBRET NUDT5 target engagement (TE) assay in HEK293 cells; assay type: cell-based; design: expressed in transfected cells; host or cells: HEK293; conditions: for pEC50: HEK293 cells, Supplementary Fig. 6B, read-out: NUDT5 NanoBRET target engagement EC50
NUDT5 and CRBN = molecular target: T3, NUDT5 and CRBN (Homo sapiens, UniProt Q96SW2+Q9UKK9); assay: NanoBRET ternary complex formation assay NanoLuc-NUDT5 / HaloTag-CRBN in HEK293 cells; assay type: cell-based; conditions: intact HEK293 cells
T3 construct: expressed in transfected cells; host or cells: HEK293
Procedure: (§3) NanoBRET ternary complex assays were performed following the manufacturer’s instructions (Promega). […] After 4 h or 20 h of incubation, a mix of substrate in assay medium was added to each well. Donor and acceptor signals were measured in a PHERAstar FSX or FS plate reader and analyzed by GraphPad Prism (v.9 or v.10). The acceptor/donor ratio was calculated, the no ligand background signal was subtracted, and multiplied by 1000 to yield mBRET units. Data were then normalized to DMSO.

HAP1 cells [6] = assay: Metabolomics with isotopically labeled formate/adenosine in HAP1 cells; assay type: cell-based, human; conditions: HAP1, 100 nM, 13C-D formate 1 mM, 15N adenosine 100 µM, 24 h
Procedure: Experiments were performed in duplicates. Approximately 1.5 × 10^6 HAP1 wt and NUDT5 KO cells were seeded in IMDM (full) prior to treatment with isotopically labeled metabolites. […] After 24 h, plates were washed with PBS and replaced with IMDM containing dialysed FBS (Gibco). Cells were treated with 1 mM of isotopically labeled sodium formate (Eurisotop, CDLM-6203-0.25) or with 1 mM of isotopically labeled sodium and 100 µM isotopically labeled adenosine (Silantes, 125303601). After 24 h, 5 × 10^6 cells for each replicate was harvested, washed with PBS, immediately snap frozen and stored at −80 °C. Cell pellets were lysed with 150 µL ice-cold 80:20 MeOH:H2O, vortexed and sonicated for 5 minutes on ice. The extract was centrifuged for 10 minutes at 10,000 × g at 4 °C and the supernatant was collected in a glass insert vial. This procedure was repeated and the two supernatants were combined. Solvent was evaporated in a vacuum concentrator. Metabolites were reconstituted in 50 µL pure MeOH. A Vanquish UHPLC system (Thermo Scientific) coupled with an Orbitrap Q Exactive (Thermo Scientific) mass spectrometer was used for the LC-MS analysis. […] Quantification of target metabolites was performed by manually integrating the area under the curve, and data were plotted using GraphPad Prism v.10.

NUDT5 [7] = molecular target: T1, NUDT5; assay: Western blot NUDT5 degradation in HEK293 cells; assay type: cell-based; conditions: for Dmax: 20 h, read-out: apparent Dmax of NUDT5 degradation
Procedure: as §1

NUDT5 [8] = molecular target: T2, NUDT5; assay: Western blot NUDT5 degradation in HEK293 cells; assay type: cell-based; conditions: 20 h, Western blot, read-out: DC50 (half-maximal degradation concentration) of NUDT5
Procedure: as §1

ZFP91 = molecular target: T4, ZFP91 (Homo sapiens, UniProt Q96JP5); assay: Western blot of ZFP91 levels in HEK293 and HAP1 cells; assay type: cell-based; conditions: 100 nM, 24 h
T4 construct: endogenous in cells; host or cells: HEK293 and HAP1
Procedure: as §1

NUDT5 [9] = molecular target: T1, NUDT5; assay: Western blot NUDT5 degradation in A549 cells; assay type: cell-based; design: endogenous in cells; host or cells: HAP1, A549, MCF7; conditions: A549, MCF7 and HAP1, 100 nM, 20 h
Procedure: as §1

HEK293 cells = assay: Untargeted global proteomics of HEK293 cells; assay type: cell-based, human; conditions: 100 nM, 24 h; for total proteome analysis, downregulated proteins: 7135 quantified proteins
Procedure: Proteomics samples were digested with trypsin using STrap columns following the manufacturer’s protocol (C02-micro, ProtiFi). […] Then, the cell pellets were collected and lysed in 5% SDS containing 1 μL/mL benzonase (E1014, Millipore) and subsequently short sonication to shear genomic DNA (1×2 s pulse, 20% amplitude, microtip, Sonics Vibra Cell). 50 μg protein from the total cell lysate or 80% of the elution fraction of the chemical pulldown were first reduced by 20 mM dithiothreitol (M02712, Fluorochem), and alkylated by 40 mM iodoacetamide (I1149, Sigma). Phosphoric acid and S-Trap protein binding buffer were added to the sample lysates. Then, the SDS lysate/S-Trap buffer were loaded into a S-Trap column (C02-micro-80, ProtiFi). 1 μg of trypsin (V5111, Promega) was used to digest each sample at 37 °C for 20 h. The samples were then eluted and dried by vacuum centrifugation. Peptide pellets were resuspended in mass spectrometry-grade water with 2% acetonitrile (85188, Thermo Scientific) and 0.1% trifluoroacetic acid (85183, Thermo Scientific). The samples were injected into Orbitrap Fusion Lumos Tribrid Mass Spectrometer (Thermo Scientific). Sample acquisition was performed as previously described.
Raw data were searched against the human database (UP000005640, downloaded 08/21) using DIA-NN (v.1.8.1)[48] by enabling FASTA digest for library-free search and Deep learning-based spectra, RTs, and IMs prediction. Trypsin/P was selected for the in silico digestion of the provided FASTA file, allowing up to 2 missed cleavages. Fixed modifications included N-terminal methionine excision and cysteine carbamidomethylation. Variable modifications were methionine oxidation and N-terminal acetylation, with a maximum of one modification per precursor. Precursor FDR was kept at 1% and MBR enabled. The protein groups matrix was further analysed using Perseus (2.0.9.0)[49] or R studio (4.3.2). Potential contaminants were filtered against the top 300 most common Homo sapiens contaminants reported in CRAPome[50]. Proteins were removed if detected less than 70% across all runs. After column-wise normalisation by median subtraction, missing values were imputed by random numbers from a normal distribution (1.8 standard deviation, downshift width 0.3). Volcano plots were generated by calculating fold change and -log10(p-value) from an unpaired two-sided Student’s t-test.

[10] = molecular target: NUDT5 and the respective E3 ligase (Homo sapiens, UniProt P40337+Q9UKK9); assay: NanoBRET ternary complex formation assay NUDT5 and the respective E3 ligase (VHL or CRBN) in HEK293 cells; assay type: cell-based; conditions: Supplementary Table 2; for Ternary complex formation below 1 µM (4 h): HEK293, 4 h; for Ternary complex formation below 1 µM (20 h): HEK293, 20 h
NUDT5 and the respective E3 ligase, sequence (P40337 whole entry, one chain of several): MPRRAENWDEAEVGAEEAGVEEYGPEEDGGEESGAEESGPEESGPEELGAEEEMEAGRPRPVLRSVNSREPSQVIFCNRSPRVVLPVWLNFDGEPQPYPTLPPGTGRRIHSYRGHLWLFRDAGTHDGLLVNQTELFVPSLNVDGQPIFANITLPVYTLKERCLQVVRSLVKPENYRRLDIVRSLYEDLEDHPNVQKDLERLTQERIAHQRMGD
Procedure: as §3

NUDT5 [11] = molecular target: T1, NUDT5; assay: Western blot NUDT5 degradation in HEK293 CRBN KO cells; assay type: cell-based; design: endogenous in cells; host or cells: HEK293 (CRBN KO); conditions: 100 nM, 20 h
Procedure: as §1

HL-60 cells = assay: Cell viability (CellTiter-Glo) 6-TG assay in HL-60 cells; assay type: cell-based, human
Procedure: (§4) HEK293, MCF7, A549 were cultured in DMEM + 10% FBS, HAP1 and HL-60 were cultured in IMDM + 10% FBS. All cell lines were maintained at 37 °C and 5% CO2.
as §2

HAP1 cells [12] = assay: Cell viability (CellTiter-Glo) and 6-TG assay in HAP1 WT cells; assay type: cell-based, human
Procedure: as §4, §2

HAP1 cell lines = assay: TH1760/6-TG cell viability assay in HAP1 cell lines; assay type: cell-based, human
Procedure: After 72 h incubation, cell viability was measured using the CellTiter-Glo assay (Promega). Signals were normalized to the control condition.

HAP1 NUDT5 KO cells = assay: Cell viability (CellTiter-Glo) 6-TG assay in HAP1 NUDT5 KO cells; assay type: cell-based, human; conditions: Fig. 1A
Procedure: as §4, §2

Cn1c(=O)c2c(nc(N3CCN(C(=O)N4CCC(CN5CCN(c6ccc7c(c6)C(=O)N(C6CCC(=O)NC6=O)C7=O)CC5)CC4)CC3)n2Cc2nnc(-c3ccc(Cl)c(Cl)c3)o2)n(C)c1=O (stereo not drawn) [dNUDT5]
time course of NUDT5 degradation (NUDT5 [1]; 100 nM, up to 72 h): sustained degradation by dNUDT5 over a time course of 72 h | NUDT5 degradation (NUDT5 [1]; HAP1 cells, Western blot, Fig. 3B): induced robust degradation of endogenous NUDT5 protein | DC50 (NUDT5 [2]): 0.3 nM | concentration of maximal rescue of cell viability (HAP1 cells [3]): 50 to 100 nM | rescue of 6-TG-induced toxicity (HAP1 cells [3]): most efficient compound in abrogating 6-TG-induced cell death | boost of cancer cell viability in presence of 6-TG compared to TH5427 and DMSO control (HAP1 cells [3]; peer review file): more than 8 fold | global proteome analysis, downregulated proteins (HAP1 cells [4]): NUDT5 was the only significantly downregulated protein | pEC50 (NUDT5 [5]): 7.43 | NUDT5 engagement in live cells (NUDT5 [5]; NanoBRET): engaged their cognate target NUDT5 in live cells | ternary complex formation between NUDT5 and CRBN in cells (NUDT5 and CRBN): only dNUDT5 induced proficient ternary complex formation | de novo derived IMP (HAP1 cells [6]): apparent increase in de novo derived IMP | mechanism of degradation (rescue by neddylation, proteasome, NUDT5 inhibitors and CRBN KO) (NUDT5 [7]): UPS-dependent | NUDT5 degradation (NUDT5 [7]; 100 nM, 6 h, Western blot, Supplementary Fig. 6A): induces degradation of NUDT5 | DC50 (NUDT5 [8]): 0.5 nM | ZFP91 levels (ZFP91): ZFP91 levels remained unchanged; also recorded: does not affect ZFP91 levels | NUDT5 downregulation across a panel of cell lines (NUDT5 [9]): robust and consistent NUDT5 downregulation

Cn1c(=O)c2c(nc(N3CCN(C(=O)CCOCCOCCOCCOCCNc4cccc5c4C(=O)N(C4CCC(=O)NC4=O)C5=O)CC3)n2Cc2nnc(-c3ccc(Cl)c(Cl)c3)o2)n(C)c1=O (stereo not drawn) [ASM130]
concentration of maximal rescue of cell viability (HAP1 cells [3]): 50 to 100 nM | effect on ZFP91 in global proteomics (HEK293 cells): slight effect on the zinc finger protein ZFP91 | total proteome analysis, downregulated proteins (HEK293 cells): NUDT5 as the most significantly downregulated protein | Dmax (NUDT5 [7]; Western blot): 75% | DC50 (NUDT5 [8]): 7 nM | Ternary complex formation below 1 µM (4 h) [10]: Yes | Ternary complex formation below 1 µM (20 h) [10]: Yes | NUDT5 degradation in CRBN knockout cells (NUDT5 [11]): CRBN knockout (KO) prevents PROTAC-mediated degradation of NUDT5

Cn1c(=O)c2c(nc(N3CCNCC3)n2Cc2nnc(-c3ccc(Cl)c(Cl)c3)o2)n(C)c1=O [TH5427, reference compound]
rescue of 6-TG-induced toxicity (HAP1 cells [3]): failed to rescue cell viability; also recorded: no signiﬁcant eﬀect | pEC50 (NUDT5 [5]): 8.52 | ability to desensitize cells to 6-TG treatment (phenocopy NUDT5 KO) (HL-60 cells): neither inhibitor was able to phenocopy the NUDT5 KO | ability to desensitize cells to 6-TG treatment (phenocopy NUDT5 KO) (HAP1 cells [12]): neither inhibitor was able to phenocopy the NUDT5 KO

Nc1nc2nc[nH]c2c(=S)[nH]1 [Compound 6-TG, 6-Thioguanine]
difference in 6-TG sensitivity, NUDT5 KO versus WT (HAP1 cell lines; HAP1, fixed TH1760 50 µM, 72 h, Fig. 4D): 2.8 fold | pIC50 (HAP1 cell lines; Homo sapiens, HAP1 WT cells, approximately): ~6.00 | increase in 6-TG IC50, NUDT5 KO versus NUDT5 WT (HAP1 NUDT5 KO cells): four-fold increase

Cn1c(=O)c2c(nc(N3CCN(C(=O)CCOCCOCCOCCNc4cccc5c4C(=O)N(C4CCC(=O)NC4=O)C5=O)CC3)n2Cc2nnc(-c3ccc(Cl)c(Cl)c3)o2)n(C)c1=O (stereo not drawn) [ASM127]
concentration of maximal rescue of cell viability (HAP1 cells [3]): 50 to 100 nM | effect on ZFP91 in global proteomics (HEK293 cells): slight effect on the zinc finger protein ZFP91 | total proteome analysis, downregulated proteins (HEK293 cells): NUDT5 as the most significantly downregulated protein | Dmax (NUDT5 [7]; Western blot): 71% | DC50 (NUDT5 [8]): 12 nM | Ternary complex formation below 1 µM (4 h) [10]: Yes | Ternary complex formation below 1 µM (20 h) [10]: Yes | NUDT5 degradation in CRBN knockout cells (NUDT5 [11]): CRBN knockout (KO) prevents PROTAC-mediated degradation of NUDT5
